Patent US11691972B2, “Compounds for targeted degradation of BRD9” (C4 Therapeutics, Inc., priority 2020, dated 2023)

Biological target: T1, BRD9 (Homo sapiens, UniProt Q9H8M2)
T1 sequence (Q9H8M2 1-597): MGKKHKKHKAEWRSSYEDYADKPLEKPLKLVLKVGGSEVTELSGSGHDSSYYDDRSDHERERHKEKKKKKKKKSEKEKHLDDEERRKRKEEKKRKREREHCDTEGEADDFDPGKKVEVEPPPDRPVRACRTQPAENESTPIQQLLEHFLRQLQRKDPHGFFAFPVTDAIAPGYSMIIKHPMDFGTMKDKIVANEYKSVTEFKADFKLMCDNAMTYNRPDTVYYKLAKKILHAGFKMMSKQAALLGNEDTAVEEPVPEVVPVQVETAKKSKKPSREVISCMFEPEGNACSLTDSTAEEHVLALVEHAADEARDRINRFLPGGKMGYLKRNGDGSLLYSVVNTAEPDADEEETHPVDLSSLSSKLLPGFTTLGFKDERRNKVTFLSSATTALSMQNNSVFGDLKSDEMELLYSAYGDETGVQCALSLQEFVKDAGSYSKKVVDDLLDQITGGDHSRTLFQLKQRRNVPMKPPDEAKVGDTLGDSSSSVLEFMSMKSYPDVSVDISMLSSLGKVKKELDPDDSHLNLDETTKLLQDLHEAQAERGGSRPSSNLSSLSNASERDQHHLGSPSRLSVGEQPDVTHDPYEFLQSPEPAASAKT
Assay: HiBiT BRD9 degradation assay in 293T.166 (BRD9-HiBiT) cells
Format: cell-based
Parameters: endogenously expressing BRD9 with HiBiT fusion tag via CRISPR; host or cells: 293T.166 (BRD9-HiBiT), also expressing LgBiT ectopically
Settings: Table 1; 293T.166 cells, 2.0 hours; class symbols; read-out: HiBiT-Degradation 293T.166 BRD9 2.0 hours (DC50)
Method in brief: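 293T.166 cells carrying endogenous CRISPR BRD9-HiBiT and expressing LgBiT treated 2 h at 37° C. with compounds, 11-point half-log titration from 10 μM in duplicate. Remaining BRD9 measured as lytic HiBiT luminescence; untreated cells as negative control, no-reagent wells as positive control.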

DC50	Structure (SMILES)
< 100 nM	Cc1c(-c2ccc(CN3CCC(F)(C4CCN(c5ccc(NC6CCC(=O)NC6=O)cc5F)CC4)CC3)c(OC(F)(F)F)c2)cn(C)c(=O)c1C (stereo not shown) [Compound 244]
< 100 nM	COc1cc(-c2cn(C)c(=O)c(C)c2C)cc(Cl)c1CN1CCC(F)(C2CCN(c3ccc(NC4CCC(=O)NC4=O)cc3F)CC2)CC1 (stereo not shown) [Compound 245]

Same assay, conditions: Table 2; 293T.166 cells, 2.0 hours; class symbols; read-out: HiBiT-Degradation 293T.166 BRD9 2.0 hours (DC50)

Structure (SMILES)	DC50
COc1cc(-c2cn(C)c(=O)c(C)c2C)cc(Cl)c1CN1CCC(F)(CCC2CCN(c3ccc(NC4CCC(=O)NC4=O)cc3Cl)CC2)CC1 (stereo not shown) [Compound 263]	< 100 nM
COc1cc(-c2cn(C)c(=O)c(C)c2C)cc(Cl)c1CN1CCc2c(CC3CCN(c4ccc(NC5CCC(=O)NC5=O)nc4)CC3)cccc2C1 (stereo not shown) [Compound 264, 3-[[5-[4-[[2-[[2-chloro-6-methoxy-4-(1,4,5-trimethyl-6-oxo-3-pyridyl)phenyl]methyl]-3,4-dihydro-1H-isoquinolin-5-yl]methyl]-1-piperidyl]-2-pyridyl]amino]piperidine-2,6-dione]	< 100 nM
C/C=C/Cn1cc(-c2cc(OC)c(CN3CCC(N4CCN(c5ccc(NC6CCC(=O)NC6=O)cc5F)CC4)C(F)(F)C3)c(OC)c2)c(C)c(C)c1=O (stereo not shown) [Compound 265, 3-[4-[4-[1-[[4-[1-[(E)-but-2-enyl]-4,5-dimethyl-6-oxo-3-pyridyl]-2,6-dimethoxy-phenyl]methyl]-3,3-difluoro-4-piperidyl]piperazin-1-yl]-3-fluoro-anilino]piperidine-2,6-dione]	< 100 nM
C/C=C/Cn1cc(-c2cc(Cl)c(CN3CCC(N4CCN(c5ccc(NC6CCC(=O)NC6=O)cc5F)CC4)C(F)(F)C3)c(OC)c2)c2ccncc2c1=O (stereo not shown) [Compound 266]	< 100 nM
COc1cc(-c2cn(C)c(=O)c3cnccc23)cc(Cl)c1CN1C2CCC1CN(C(=O)CC1CCN(c3ccc(NC4CCC(=O)NC4=O)cc3F)CC1)C2 (stereo not shown) [Compound 271]	< 100 nM
COc1cc(-c2cn(C)c(=O)c(C)c2C)cc(OC)c1CN1C2CCC1CN(C(=O)CC1CCN(c3ccc(NC4CCC(=O)NC4=O)nc3)CC1)C2 (stereo not shown) [Compound 272]	< 100 nM
COc1cc(-c2cn(C)c(=O)c(C)c2C)cc(Cl)c1CN1CCC(C2CCN(c3ccc(NC4CCC(=O)NC4=O)nc3)CC2)C(F)(F)C1 (stereo not shown) [Compound 273]	< 100 nM
COc1cc(-c2cn(C)c(=O)c3cnccc23)cc(Cl)c1C(=O)N1CCC(F)(C2CCN(c3ccc(NC4CCC(=O)NC4=O)cc3F)CC2)CC1 (stereo not shown) [Compound 275]	< 100 nM

The next lines start with the values.

DC50	Structure (SMILES)
< 100 nM	COc1cc(-c2cn(C)c(=O)c(C)c2C)cc(Cl)c1CN1CCC(N2CCN(c3ccc(N(C)C4CCC(=O)NC4=O)cc3F)CC2)C(F)(F)C1 (stereo not shown) [Compound 248]
< 100 nM	COc1cc(-c2cn(C)c(=O)c(C)c2C)cc(OC)c1CN1CCC(N2CCN(c3ccc(OC4CCC(=O)NC4=O)cc3F)CC2)C(F)(F)C1 (stereo not shown) [Compound 251, 3-[4-[4-[1-[[2,6-dimethoxy-4-(1,4,5-trimethyl-6-oxo-3-pyridyl)phenyl]methyl]-3,3-difluoro-4-piperidyl]piperazin-1-yl]-3-fluoro-phenoxy]piperidine-2,6-dione]
< 100 nM	[2H]C([2H])([2H])n1cc(-c2ccc(CN3CCC(C4CCN(c5ccc(NC6CCC(=O)NC6=O)cc5F)CC4)CC3)c(OC(F)(F)F)c2)c2ccncc2c1=O (stereo not shown) [Compound 252, 3-[3-fluoro-4-[4-[1-[[4-[1-oxo-2-(trideuteriomethyl)-2,7-naphthyridin-4-yl]-2-(trifluoromethoxy)phenyl]methyl]-4-piperidyl]-1-piperidyl]anilino]piperidine-2,6-dione]
< 100 nM	Cn1cc(-c2ccc(CN3CCC(N4CCN(c5ccc(NC6CCC(=O)NC6=O)nc5)CC4)C(F)(F)C3)c(OC(F)(F)F)c2)c2ccncc2c1=O (stereo not shown) [Compound 253, 3-[[5-[4-[3,3-difluoro-1-[[4-(2-methyl-1-oxo-2,7-naphthyridin-4-yl)-2-(trifluoromethoxy)phenyl]methyl]-4-piperidyl]piperazin-1-yl]-2-pyridyl]amino]piperidine-2,6-dione]
< 100 nM	COc1cc(-c2cn(C)c(=O)c3cnccc23)cc(Cl)c1CN1CCC(N2CCN(c3ccc(N(C)C4CCC(=O)NC4=O)cc3F)CC2)C(F)(F)C1 (stereo not shown) [Compound 254, 3-[4-[4-[1-[[2-chloro-6-methoxy-4-(2-methyl-1-oxo-2,7-naphthyridin-4-yl)phenyl]methyl]-3,3-difluoro-4-piperidyl]piperazin-1-yl]-3-fluoro-N-methyl-anilino]piperidine-2,6-dione]
< 100 nM	COc1cc(-c2cn(C)c(=O)c3cnccc23)c(Cl)cc1CN1CCC(N2CCN(c3ccc(NC4CCC(=O)NC4=O)cc3F)CC2)C(F)(F)C1 (stereo not shown) [Compound 255]
< 100 nM	COc1cc(-c2cn(C)c(=O)c(C)c2C)cnc1CN1CCC(N2CCN(c3ccc(NC4CCC(=O)NC4=O)cc3F)CC2)C(F)(F)C1 (stereo not shown) [Compound 260, 3-[4-[4-[3,3-difluoro-1-[[3-methoxy-5-(1,4,5-trimethyl-6-oxo-3-pyridyl)-2-pyridyl]methyl]-4-piperidyl]piperazin-1-yl]-3-fluoro-anilino]piperidine-2,6-dione]
< 100 nM	COc1cc(-c2cn(C)c(=O)c3ccccc23)cnc1CN1CCC(N2CCN(c3ccc(NC4CCC(=O)NC4=O)cc3F)CC2)C(F)(F)C1 (stereo not shown) [Compound 261, 3-[4-[4-[3,3-difluoro-1-[[3-methoxy-5-(2-methyl-1-oxo-4-isoquinolyl)-2-pyridyl]methyl]-4-piperidyl]piperazin-1-yl]-3-fluoro-anilino]piperidine-2,6-dione]
< 100 nM	COc1cc(-c2cn(C)c(=O)c3cnccc23)cc(Cl)c1CN1CCC(C2CCN(c3ccc(NC4CCC(=O)NC4=O)nc3)CC2)C(F)(F)C1 (stereo not shown) [Compound 262]
